By IC50 is commonly meant the concentration needed to halve the response being measured. Higher therefore signals a need for much substance.

In the first experiment the target is Beta-lactamase (Pseudomonas aeruginosa, UniProt Q932Y6). Nature of the experiment: VIM-2 metallo-beta-lactamase inhibitor potency, dose response, biochemical, epi-absorbance readout, selective inhibitors (AID 1919).
Beta-lactamase, sequence (Q932Y6 whole entry): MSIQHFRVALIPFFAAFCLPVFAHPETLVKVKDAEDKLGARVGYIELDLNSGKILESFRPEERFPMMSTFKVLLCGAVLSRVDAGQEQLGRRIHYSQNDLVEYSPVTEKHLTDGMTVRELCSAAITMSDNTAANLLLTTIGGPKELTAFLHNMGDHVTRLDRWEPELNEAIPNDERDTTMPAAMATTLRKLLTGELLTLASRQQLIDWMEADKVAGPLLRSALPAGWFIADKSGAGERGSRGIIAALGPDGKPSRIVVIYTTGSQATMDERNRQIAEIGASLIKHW
`Cn1c(-c2sccc2OCc2ccc(Cl)cc2Cl)n[nH]c1=S` came in with an IC50 of 6.63 µM.

The target in a further experiment is VIM-2 metallo β-lactamase (Pseudomonas aeruginosa, UniProt Q9K2N0). The description is as above.
The compound `O=C1C(=O)N(Cc2cccnc2)C(c2ccccn2)C1C(=O)c1cccs1` (stereo not drawn) [3-hydroxy-5-(2-pyridinyl)-1-(3-pyridinylmethyl)-4-(2-thienylcarbonyl)-1,5-dihydro-2H-pyrrol-2-one] came in with an IC50 of 13.2 µM.
As to `COc1ccc(OC)c(C=NNC(=O)Cc2c(C)[nH][nH]c2=O)c1` [SMR000147372], the concentration for half-maximal inhibition (IC50) was found to be 6.1 µM.
`O=C1C(=O)N(Cc2cccnc2)C(c2ccccn2)C1C(=O)c1ccccc1` (stereo not drawn) [(4Z)-4-[hydroxy(phenyl)methylene]-5-(2-pyridyl)-1-(3-pyridylmethyl)pyrrolidine-2,3-quinone] yielded a half-inhibitory concentration (IC50) of 5 µM.
In turn, `COc1ccc(OC)c(C2C(C(=O)c3ccco3)C(=O)C(=O)N2Cc2cccnc2)c1` (stereo not drawn) [2-(2,5-dimethoxyphenyl)-3-(furan-2-carbonyl)-4-hydroxy-1-(pyridin-3-ylmethyl)-2H-pyrrol-5-one] returned an IC50 of 1.94 µM.
On the same count and under the same terms, as for `COc1ccc(C(=O)C2C(=O)C(=O)N(Cc3ccco3)C2c2cc(OC)ccc2OC)cc1` (stereo not drawn) [(4E)-5-(2,5-dimethoxyphenyl)-1-(2-furanylmethyl)-4-[hydroxy-(4-methoxyphenyl)methylidene]pyrrolidine-2,3-dione], the figure is 12.8 µM; as for `COc1cc(OC)c(OC)cc1C=NNC(=O)Cc1c(C)[nH][nH]c1=O` [MLS000555854], 4.22 µM; as for `O=C1C(=O)N(Cc2cccnc2)C(c2ccccn2)C1C(=O)c1ccc(F)cc1` (stereo not drawn) [(4Z)-4-[(4-fluorophenyl)-hydroxy-methylene]-5-(2-pyridyl)-1-(3-pyridylmethyl)pyrrolidine-2,3-quinone], 2.42 µM.

The values are drawn from BindingDB's records for doi:10.7270/Q2X63KBQ (The Scripps Research Institute Molecular Screening Center, 2009).
